Measured values reported in patent US20220275458A1, “PREDICTION OF CANCER THERAPY EFFICACY” (UNIVERSITY OF MASSACHUSETTS, priority 2019, published 2022).

Tests used:
RPE1 cells [1] = assay: Cell survival assays in Control, FANCJ K/O and BRCA1 K/O RPE1 cells; assay type: cell-based, human; conditions: for sensitivity at therapeutic range: 0.5 uM Olaparib
Experimental: (§1) Cells were seeded onto 96-well plates (500 cells per well, performed in triplicate for each experiment group) and incubated overnight. The next day, cells were treated with increasing doses of drugs indicated in corresponding figures and maintained in complete media for 5 to 7 days. Percentage survival was measured photometrically using a CellTiter-Glo 2.0 viability assay (Promega) in a microplate reader (Beckman Coulter DTX 880 Multimode Detector).

U2OS cells = assay: Electron microscopy of reversed replication forks; assay type: cell-based, human; conditions: 4 mM HU
Experimental: To investigate the effect of TLS on the fine replication fork architecture, psoralen cross-linking coupled to reversed fork intermediates were detected with electron microscopy (EM) with or without elevated TLS. Following 4 mM HU treatment, a substantial fraction of reversed replication forks were found in FANCJ^WT and empty vector U2OS cells (˜26% and 23%, respectively). […] See, FIG. 6D.
For the EM analysis of replication intermediates, 5-10×10^6 U2OS cells treated with or without 4 mM HU were collected and genomic DNA was cross-linked by two rounds of incubation in 10 μg ml-1 4,5,8-trimethylpsoralen (Sigma-Aldrich) and 3 min of irradiation with 366 nm UV light on a precooled metal block10,26. Cells were lysed and genomic DNA was isolated from the nuclei by proteinase K (Roche) digestion and phenol-chloroform extraction. DNA was purified by isopropanol precipitation, digested with PvuII HF in the proper buffer for 3-5 h at 37° C. and replication intermediates were enriched on a benzoylated naphthoylated DEAE-cellulose (Sigma-Aldrich) column. EM samples were prepared by spreading the DNA on carbon-coated grids in the presence of benzyl-dimethyl-alkylammonium chloride and visualized by platinum rotary shadowing. Images were acquired on a transmission electron microscope (JEOL 1200 EX) with side-mounted camera (AMTXR41 supported by AMT software v601) and analyzed with ImageJ (National Institutes of Health). EM analysis allows distinguishing duplex DNA—which is expected to appear as a 10 nm thick fiber, after the platinum/carbon coating step necessary for EM visualization—from ssDNA, which has a reduced thickness of 5-7 nm. The criteria used for the unequivocal assignment of reversed forks include the presence of a rhomboid structure at the junction itself in order to provide a clear indication that the junction is opened up and that the four-way junction structure is not simply the result of the occasional crossing of two DNA molecules^25. […]

[2] = test system: pro-TLS U2OS and HCT15 cells; assay: Colony formation assay with ATRi or Wee1i alone or with TLSi; assay type: cell-based, human; conditions: for clonogenic survival: pro-TLS U2OS cells compared to non-TLS dependent cells; for response in colony formation assay: pro-TLS cancer cell line HCT15
Experimental: Currently, there is a major clinical effort to combat cancer by induction of replication stress through inhibition of ATR or the mitotic checkpoint kinase, Wee1 (Bukhari et al., 2019). Given that these drugs induce replication gaps, it was considered that if gaps were the sensitizing lesion, TLS could also interfere with their effectiveness. […] See, FIG. 55A, 5B and FIG. 56A-D; (Bukhari et al., 2019).
For colony formation assays either 500 or 1000 cells per well were seeded into 6 well plates and were treated continuously with or without TLSi. Once the colonies had developed, the cells were fixed with 90% methanol and then stained with 0.05% (w/v) crystal violet solution. Plates were then imaged using ChemiDocTM Touch Imaging System (BioRad).

[3] = test system: TLS cancer vs non-TLS cancer or non-cancer cells; assay: Combined assay: EdU replication and ssDNA gaps (TLS specificity); assay type: cell-based, human; conditions: U2OS cell lines; HU plus ATR inhibitor
Experimental: A combination assay was performed in a high-throughput manner using 384-well plates. This assay served as a rapid and efficient method to determine the anti-TLS activity of the lead compounds and novel analogues. […] Specifically, the assay identifies compounds that cause TLS cells, but not non-TLS cells, to lose replication (green) and gain ssDNA gaps (red). […] Colors can be identified using a high content and high throughput imaging camera. […] Moreover, red and green fluorescent readouts are readable/quantifiable from full well images at 20×. Several positive and negative controls that may be employed in parallel with the screen to induce gaps or suppress gaps. In particular, under these assay conditions replication with gaps are induced when ATR is inhibited.
A combined assay can be performed to first analyze the ability of these TLSi's to inhibit global replication with concomitant induction of ssDNA in TLS cancer vs non-TLS cancer or non-cancer cells. Second, a colony formation assays in each of these models to determine whether the TLSi's selectively reduce colony formation in TLS cancer cells.
Immunofluorescence was performed as described previously^27. Cells were grown on coverslips in 10 μM BrdU for 48 h before the treatment with drugs. Cells were then treated with the aforementioned drugs for 2 h. […]

BR5-R1 cells = assay: Cell survival assays for T2, BR5 and BR5-R1 cells; assay type: cell-based, mouse; conditions: BR5-R1 PARPi-resistant cells; VE-821 1 μM co-incubated with olaparib
Experimental: To determine whether gap suppression mechanisms occur in models of de novo PARPi resistance, cell lines were analyzed that were initially sensitive to PARPi and then had gained PARPi resistance while propagated in tissue culture^41. BRCA1-deficient mouse ovarian tumor cell line, BR5, was utilized and its derived PARPi-resistant cell line, BR5-R1^41. PARPi sensitivity of BR5 was confirmed as compared to BR5-R1 and BRCA1 proficient T2 cells. See, FIG. 41A. […] See, FIG. 41B. […] See, FIGS. 41B and 41C. Thus, BR5-R1 cells resemble FANCJ deficient cells, in that they both lack PARPi induced-sensitivity, lengthening, or gaps, but remain sensitive to cisplatin. See, FIG. 42A. […] See, FIGS. 41A, 41C and 42A.
as §1

PEO1 and C4-2 cells = assay: Cell survival assay, cisplatin, PEO1 and C4-2; assay type: cell-based, human
Experimental: Cells were plated at 500 cells per well in the center wells of a 96 well plate in 200 ul volume and allowed to adhere for 36 h. Subsequently, drugs were added in a 100 ul volume and the cells were incubated for 10 days. CellTiter-Glo 2.0 (Promega) was used to quantify cell number by ATP. To prevent evaporation, all blank wells in the 96 well plate were filled with media, and each plate was placed in a humid chamber with PBS.

[4] = test system: BRCA-RAD51 pathway proficient or deficient cell lines; assay: PARPi response of model cell systems (Table 4 summary); assay type: cell-based
Experimental: In the above tested model systems, HR or FP sometimes correlate with PARPi resistance whereas ssDNA gap suppression always correlates. Moreover, defects in HR or FP sometimes correlate with PARPi sensitivity whereas gaps always correlate.
as §1

RPE1 cells [5] = assay: DNA fiber assay following olaparib treatment; assay type: cell-based, human; conditions: 10 μM olaparib, 2 h
Experimental: Cells were labeled by sequential incorporation of two different nucleotide analogs, IdU and CldU, into nascent DNA strands for the indicated time and conditions. After nucleotide analogs were incorporated in vivo, the cells were collected, washed, spotted, and lysed on positively charged microscope slides by […] spreading buffer for 8 min at room temperature. For experiments with the ssDNA-specific endonuclease S1, after the CldU pulse, cells were treated with CSK100 buffer for 10 min at room temperature, then incubated with S1 nuclease buffer with or without 20 U/mL S1 nuclease (Invitrogen, 18001-016) for 30 min at 37 C. The cells were then scraped in PBS +0.1% BSA and centrifuged at 7,000 rpm for 5 min at 4 C. Cell pellets were resuspended at […] and lysed with lysis solution on slides. Individual DNA fibers were released and spread by tilting the slides at 45 degrees. After air-drying, fibers were fixed by 3:1 methanol/acetic acid at room temperature for 3 min. After air-drying again, fibers were rehydrated in PBS, denatured with 2.5 M HCl for 30 min, washed with PBS, and blocked with blocking buffer for 1 hr. […] Finally, visualization of green and/or red signals by fluorescence microscopy (Axioplan 2 imaging, Zeiss) provided information about the active replication directionality at the single-molecule level.

SMILES: CC[C@@]1(O)C(=O)OCc2c1cc1n(c2=O)Cc2cc3ccccc3nc2-1 [CPT, camptothecin]
- sensitivity in cell survival assay (RPE1 cells [1]; FANCJ K/O RPE1 cells, CPT): sensitive

SMILES: NC(=O)NO [HU, hydroxyurea]
- frequency of fork reversal events (U2OS cells; FANCJ S990A U2OS cells): ~11%
- fraction of reversed replication forks (U2OS cells; FANCJ WT U2OS cells): ~26%
- fraction of reversed replication forks (U2OS cells; empty vector U2OS cells): 23%

SMILES: C=CCn1c(=O)c2cnc(Nc3ccc(N4CCN(C)CC4)cc3)nc2n1-c1cccc(C(C)(C)O)n1 [MK1775]
- clonogenic survival [2]: greater clonogenic survival
- response in colony formation assay [2]: resistance

SMILES: CS(=O)(=O)c1ccc(-c2cnc(N)c(C(=O)Nc3ccccc3)n2)cc1 [VE-821]
- replication and ssDNA gaps during stress [3]: promoted replication during stress, but with significant ssDNA gap induction
- effect on PARPi sensitivity (BR5-R1 cells): re-established PARPi sensitivity
- clonogenic survival [2]: greater clonogenic survival
- response in colony formation assay [2]: resistance

SMILES: N.N.[Cl][Pt][Cl] [cisplatin]
- cisplatin response (PEO1 and C4-2 cells; C4-2 cells, BRCA2 proficient PEO1 reversion line): resistant
- cisplatin response (PEO1 and C4-2 cells; PEO1 cells, truncated BRCA2): hypersensitive
- sensitivity in cell survival assay (RPE1 cells [1]; BRCA1 K/O RPE1 cells, cisplatin): sensitive
- sensitivity in cell survival assay (RPE1 cells [1]; FANCJ K/O RPE1 cells, cisplatin): sensitive

SMILES: O=C(c1cc(Cc2n[nH]c(=O)c3ccccc23)ccc1F)N1CCN(C(=O)C2CC2)CC1 [olaparib]
- PARPi response ([4]; BRCA1/2 deficient): sensitive
- PARPi response ([4]; BRCA1/2 proficient): resistant
- PARPi response ([4]; BRCA1 and 53BP1 deficient): resistant
- PARPi response ([4]; BRCA2 S3291A mutant): resistant
- PARPi response ([4]; BRCA2 and CHD4 deficient): resistant
- PARPi response ([4]; FANCJ deficient): resistant
- PARPi response ([4]; RAD51 T131P mutant): sensitive
- PARPi response ([4]; RAD51 T131P mutant and RADX deficient): sensitive
- replication tract length (RPE1 cells [5]): lengthens replication tracts
- sensitivity at therapeutic range (RPE1 cells [1]; BRCA1 K/O RPE cells): sensitive
- sensitivity at therapeutic range (RPE1 cells [1]; control and FANCJ K/O cells): not sensitive
- sensitivity in cell survival assay (RPE1 cells [1]; BRCA1 K/O RPE1 cells, olaparib): sensitive
- sensitivity in cell survival assay (RPE1 cells [1]; FANCJ K/O RPE1 cells, olaparib): not sensitize
